24 molecules from patent US12629374B2, “Antimalarial agents” (Merck Sharp & Dohme LLC, priority 2020, dated 2026) can be followed below.

pEC50: −log10 of the molar value.

The assay has as its system ring stage parasites. The assay is described as follows: Parasite growth potency assay, 72 hours, LDH readout. In kind it is cell-based. The conditions noted are these: 72 h, parasite growth measured by LDH assay after 72 hours at 37° C.; 0.7% rings, 2% haematocrit; read-out: EC50. The method, boiled down: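 Parasite growth was quantified by LDH assay after a −80 °C freeze-thaw. Before that, compound was incubated for 72 h at 37 °C under humidified gas with ring-stage cultures adjusted to 0.7% parasitemia and 2% haematocrit in serum- and albumax-supplemented RPMI-Hepes.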
Consider `CC[C@]1(C(C)C)CC(=O)N(Cc2cc(F)cc(C(=O)N[C@@H]3c4ccccc4C[C@H]3O)c2)C(=N)N1` [Example 45, [(4R)-4-ethyl-1-[[3-fluoro-5-[[(1R,2R)-2-hydroxyindan-1-yl]carbamoyl]phenyl]methyl]-4-isopropyl-6-oxo-hexahydropyrimidin-2-ylidene]ammonium; 2,2,2-trifluoroacetate], for which the pEC50 was 8.59.

Consider `CC[C@]1(CC(C)C)CC(=O)N(Cc2cc(F)cc(C(=O)N[C@H]3CCOc4ccccc43)c2)C(=N)N1` [Example 46, [(4S)-1-[[3-[[(4S)-chroman-4-yl]carbamoyl]-5-fluoro-phenyl]methyl]-4-ethyl-4-isobutyl-6-oxo-hexahydropyrimidin-2-ylidene]ammonium; 2,2,2-trifluoroacetate], for which the pEC50 is 7.98.

Take `CC[C@]1(CC(C)C)CC(=O)N(Cc2cc(F)cc(C(=O)N[C@@H]3c4ccccc4C[C@H]3O)c2)C(=N)N1` [Example 47, [(4S)-4-ethyl-1-[[3-fluoro-5-[[(1R,2R)-2-hydroxyindan-1-yl]carbamoyl]phenyl]methyl]-4-isobutyl-6-oxo-hexahydropyrimidin-2-ylidene]ammonium; 2,2,2-trifluoroacetate]: the pEC50 is 8.19.

For `CCC1(CC)NC(=N)N(Cc2cc(F)cc(C(=O)N[C@@H]3c4ccccc4C[C@H]3O)c2)C(=O)C1C` (stereo partly drawn) [Example 48, [4,4-diethyl-1-[[3-fluoro-5-[[(1R,2R)-2-hydroxyindan-1-yl]carbamoyl]phenyl]methyl]-5-methyl-6-oxo-hexahydropyrimidin-2-ylidene]ammonium; 2,2,2-trifluoroacetate], the negative-log EC50 (pEC50) was 8.28.

As to `CCC[C@H](c1cc(C(=O)N[C@H]2CCOc3ccccc32)ccn1)N1C(=N)NC(CC)(CC)CC1=O` [Example 49A, [1-[1-[4-[[(4S)-chroman-4-yl]carbamoyl]pyridin-1-ium-2-yl]butyl]-4,4-diethyl-6-oxo-hexahydropyrimidin-2-ylidene]ammonium; 2,2,2-trifluoroacetate], the pEC50 was 9.15.

For the molecule `CCC[C@@H](c1cc(C(=O)N[C@H]2CCOc3ccccc32)ccn1)N1C(=N)NC(CC)(CC)CC1=O` [Example 49B, [1-[1-[4-[[(4S)-chroman-4-yl]carbamoyl]pyridin-1-ium-2-yl]butyl]-4,4-diethyl-6-oxo-hexahydropyrimidin-2-ylidene]ammonium; 2,2,2-trifluoroacetate], the negative-log EC50 (pEC50) is 7.07.

As for `CCC[C@H](c1cncc(C(=O)N[C@H]2CCOc3ccccc32)c1)N1C(=N)NC(CC)(CC)CC1=O` [Example 50, [1-[1-[5-[[(4S)-chroman-4-yl]carbamoyl]pyridin-1-ium-3-yl]butyl]-4,4-diethyl-6-oxo-hexahydropyrimidin-2-ylidene]ammonium; 2,2,2-trifluoroacetate], the pEC50 was 9.40.

On to `CC[C@]1(c2ccccc2)CC(=O)N(Cc2cc(F)cc(C(=O)N[C@H]3CCOc4ccccc43)c2)C(=N)N1` [Example 52, [(4R)-1-[[3-[[(4S)-chroman-4-yl]carbamoyl]-5-fluoro-phenyl]methyl]-4-ethyl-6-oxo-4-phenyl-hexahydropyrimidin-2-ylidene]ammonium; 2,2,2-trifluoroacetate], for which the pEC50 was 7.70.

With `CC[C@]1(c2ccccc2)CC(=O)N(Cc2cc(F)cc(C(=O)N[C@@H]3c4ccccc4C[C@H]3O)c2)C(=N)N1` [Example 53, [(4R)-4-ethyl-1-[[3-fluoro-5-[[(1R,2R)-2-hydroxyindan-1-yl]carbamoyl]phenyl]methyl]-6-oxo-4-phenyl-hexahydropyrimidin-2-ylidene]ammonium; 2,2,2-trifluoroacetate], the pEC50 is 7.60.

For `CCC1(CC)CC(=O)N([C@H](CCN2CCOCC2)c2cccc(C(=O)N[C@H]3CCOc4ccccc43)c2)C(=N)N1` [Example 54, [1-[1-[3-[[(4S)-chroman-4-yl]carbamoyl]phenyl]-3-morpholin-4-ium-4-yl-propyl]-4,4-diethyl-6-oxo-hexahydropyrimidin-2-ylidene]ammonium; 2,2,2-trifluoroacetate], the pEC50 is 8.25.

In the case of `CCC1(CC)CC(=O)N([C@H](CCN2CCOCC2)c2cccc(C(=O)N[C@@H]3c4ccccc4C[C@H]3O)c2)C(=N)N1` [Example 55, [4,4-diethyl-1-[1-[3-[[(1R,2R)-2-hydroxyindan-1-yl]carbamoyl]phenyl]-3-morpholin-4-ium-4-yl-propyl]-6-oxo-hexahydropyrimidin-2-ylidene]ammonium; 2,2,2-trifluoroacetate], the pEC50 is 8.01.

On to `CCC1(CC)CC(=O)N([C@H](CCOC)c2cccc(C(=O)N[C@H]3CCOc4ccccc43)c2)C(=N)N1` [Example 56, [1-[1-[3-[[(4S)-chroman-4-yl]carbamoyl]phenyl]-3-methoxy-propyl]-4,4-diethyl-6-oxo-hexahydropyrimidin-2-ylidene]ammonium; 2,2,2-trifluoroacetate], for which the pEC50 is 9.30.

With `CCC[C@H](c1cncc(C(=O)N[C@@H]2c3ccccc3C[C@H]2O)c1)N1C(=N)NC(CC)(CC)CC1=O` [Example 57, [4,4-diethyl-1-[1-[5-[[(1R,2R)-2-hydroxyindan-1-yl]carbamoyl]pyridin-1-ium-3-yl]butyl]-6-oxo-hexahydropyrimidin-2-ylidene]ammonium; 2,2,2-trifluoroacetate], the pEC50 is 9.22.

Take `CCC1(CC)CC(=O)N([C@H](CCN2CCCC2)c2cccc(C(=O)N[C@H]3CCOc4ccccc43)c2)C(=N)N1` [Example 58, [1-[1-[3-[[(4S)-chroman-4-yl]carbamoyl]phenyl]-3-pyrrolidin-1-ium-1-yl-propyl]-4,4-diethyl-6-oxo-hexahydropyrimidin-2-ylidene]ammonium; 2,2,2-trifluoroacetate]: the pEC50 is 8.89.

Consider `CCC1(CC)CC(=O)N([C@H](CCO)c2cccc(C(=O)N[C@H]3CCOc4ccccc43)c2)C(=N)N1` [Example 59, [1-[1-[3-[[(4S)-chroman-4-yl]carbamoyl]phenyl]-3-hydroxy-propyl]-4,4-diethyl-6-oxo-hexahydropyrimidin-2-ylidene]ammonium; 2,2,2-trifluoroacetate], for which the negative-log EC50 (pEC50) was 8.33.

On to `CC[C@@]1(C(C)C)CC(=O)N(Cc2cc(F)cc(C(=O)N[C@H]3CCOc4ccccc43)c2)C(=N)N1` [Example 60, [(4S)-1-[[3-[[(4S)-chroman-4-yl]carbamoyl]-5-fluoro-phenyl]methyl]-4-ethyl-4-isopropyl-6-oxo-hexahydropyrimidin-2-ylidene]ammonium; 2,2,2-trifluoroacetate], for which the negative logarithm of the EC50 (pEC50) was 8.24.

For `CC[C@@]1(C(C)C)CC(=O)N(Cc2cc(F)cc(C(=O)N[C@@H]3c4ccccc4C[C@H]3O)c2)C(=N)N1` [Example 61, [(4S)-4-ethyl-1-[[3-fluoro-5-[[(1R,2R)-2-hydroxyindan-1-yl]carbamoyl]phenyl]methyl]-4-isopropyl-6-oxo-hexahydropyrimidin-2-ylidene]ammonium; 2,2,2-trifluoroacetate], the pEC50 was 8.21.

Take `CC[C@@]1(C(F)(F)F)CC(=O)N(Cc2cc(F)cc(C(=O)N[C@H]3CCOc4ccccc43)c2)C(=N)N1` [Example 63, [(4S)-1-[[3-[[(4S)-chroman-4-yl]carbamoyl]-5-fluoro-phenyl]methyl]-4-ethyl-6-oxo-4-(trifluoromethyl)hexahydropyrimidin-2-ylidene]ammonium; 2,2,2-trifluoroacetate]: the pEC50 was 7.10.

Take `CCC[C@H](c1cccc(C(=O)N[C@H]2CCOc3ccccc32)c1)N1C(=N)N[C@@](CC2CC2)(c2ccccc2)CC1=O` [Example 64, [(4R)-1-[(1R)-1-[3-[[(4S)-chroman-4-yl]carbamoyl]phenyl]butyl]-4-(cyclopropylmethyl)-6-oxo-4-phenyl-hexahydropyrimidin-2-ylidene]ammonium; 2,2,2-trifluoroacetate]: the pEC50 is 7.12.

On to `CCC[C@H](c1cccc(C(=O)N[C@@H]2c3ccccc3C[C@H]2O)c1)N1C(=N)N[C@@](CC2CC2)(c2ccccc2)CC1=O` [Example 65, [(4R)-4-(cyclopropylmethyl)-1-[(1R)-1-[3-[[(1R,2R)-2-hydroxyindan-1-yl]carbamoyl]phenyl]butyl]-6-oxo-4-phenyl-hexahydropyrimidin-2-ylidene]ammonium; 2,2,2-trifluoroacetate], for which the pEC50 was 7.36.

With `CCC[C@H](c1cccc(C(=O)N[C@H]2CCOc3ccccc32)c1)N1C(=N)N[C@@](CC)(c2ccccc2)CC1=O` [Example 66, [(4R)-1-[(1R)-1-[3-[[(4S)-chroman-4-yl]carbamoyl]phenyl]butyl]-4-ethyl-6-oxo-4-phenyl-hexahydropyrimidin-2-ylidene]ammonium; 2,2,2-trifluoroacetate], the pEC50 was 8.12.

Turning to `CCC[C@H](c1cccc(C(=O)N[C@@H]2c3ccccc3C[C@H]2O)c1)N1C(=N)N[C@@](CC)(c2ccccc2)CC1=O` [Example 67, [(4R)-4-ethyl-1-[(1R)-1-[3-[[(1R,2R)-2-hydroxyindan-1-yl]carbamoyl]phenyl]butyl]-6-oxo-4-phenyl-hexahydropyrimidin-2-ylidene]ammonium; 2,2,2-trifluoroacetate], the pEC50 is 8.57.

`CCC[C@H](c1cccc(C(=O)N[C@H]2CCOc3ccccc32)c1)N1C(=N)N[C@](CC2CC2)(c2ccccc2)CC1=O` [Example 68, [(4S)-1-[(1R)-1-[3-[[(4S)-chroman-4-yl]carbamoyl]phenyl]butyl]-4-(cyclopropylmethyl)-6-oxo-4-phenyl-hexahydropyrimidin-2-ylidene]ammonium; 2,2,2-trifluoroacetate]: the pEC50 is 7.14.

In the case of `CCC[C@H](c1cccc(C(=O)N[C@@H]2c3ccccc3C[C@H]2O)c1)N1C(=N)N[C@](CC2CC2)(c2ccccc2)CC1=O` [Example 69, [(4S)-4-(cyclopropylmethyl)-1-[(1R)-1-[3-[[(1R,2R)-2-hydroxyindan-1-yl]carbamoyl]phenyl]butyl]-6-oxo-4-phenyl-hexahydropyrimidin-2-ylidene]ammonium; 2,2,2-trifluoroacetate], the pEC50 is 7.53.
